Where two headings read alike, the source gives them in different places.

The test system of data set [1] is HCV luciferase replicon. Kind of data set: Isobologram analysis of synergism with other anti-viral compounds. It counts as cell-based, hepatitis C virus (HCV). The protocol:
Isobologram analysis was carried to assess the potential synergistic interaction of representative disclosed compounds with representative antiviral compounds. The isobolgram analysis was conducted as previously described by Chou and Talalay (see Chou T. C. and Talalay P. “Analysis of combined drug effects: a new look at a very old problem.” Trends Pharmacol Sci 1983; 4:450-4; and Chou T. C. and Talalay P. “Quantitative analysis of dose-effect relationships: the combined effects of multiple drugs or enzyme inhibitors.” Adv Enzyme Regul 1984; 22:27-55). The definitions of synergism are those described by Chou (see Chou, T. C. (2006) Theoretical basis, experimental design, and computerized simulation of synergism and antagonism in drug combination studies. Pharmacol Rev. 58(3):621-81).
Data for the isobologram analysis are shown in FIGS. 12-15, and shown in each figure are the test compound concentrations and corresponding combination index.

Data set [2] concerns HCV luciferase replicon. Put plainly: HCV luciferase replicon inhibition in the presence of carboxylesterase inhibitors (benzil or BNPP). As to conditions: Hepatitis C virus, 48 h. It is filed as cell-based. The protocol: The cells were counted using a hemocytometer, and then diluted to 1×10^5 cells/mL in DMEM with 10% FBS and […] G415. 100 μL of the cells (10,000 cells) were plated per well in a white-walled 96-well plate according to the template on the following page.
Treating the cells: Media (DMEM with 2% FBS) was pre-warmed to 37° C. Stock solutions (100 mM) of Benzil and BNPP were diluted in DMEM with 2% FBS to 100 μM. […] The cells were returned to 37° C. for 1 h. […] The 1.0 mM dilution of GCB or GTB in DMEM+2% FBS+100 μM Benzil or BNPP was serially diluted in DMEM with 2% FBS, 0.5% DMSO, 100 μM benzil or BNPP. At the end of the 1 h incubation, the 96-well plate with cells plated as above was removed from the 37° C. incubator, and 50 μL media diluted test drug and 100 μM of benzil or BNPP was added to each well. The plates were gently rocked to mix the media. Also included were conditions with inhibitors alone (DMEM+2% FBS+0.5% DMSO+100 μM benzil or BNPP) and media alone (DMEM+2% FBS+0.5% DMSO) in triplicate. The plates were returned to 37° C. for 48 h.

Data set [3] can be described thus: TC50 MTS assay: RPK9 cells (deficient in deoxycytidine kinase). It counts as cell-based. As to conditions: human, 48 h drug treatment, dCK-deficient cells. The protocol:
Plating Cells: The Huh7, HEPG2, HEK293, MCF-7, PK9, RPK9, or BxPC3 cells were passaged when they were about 70% confluent. The cells were counted using a hemocytometer, and then diluted cells to 0.5×10^5 cells per mL in DMEM+10% FBS. 100 µL of the cells (5,000 cells) were plated per well in a clear 96-well plate. The cells were allowed to attach for 24 hours at 37° C.
Treating the cells: Pre-warm the DMEM media without phenol red+2% FBS media to 37° C. […] This will bring the final DMSO concentration to 0.5%. Use these 0.5 mM dilutions to further serially the drugs in DMEM without phenol red+2% FBS+0.5% DMSO. This will keep the concentration of DMSO in each condition identical. Remove the 96-well plate from the 37° C. incubator. Replace the media on the plate with the dilutions of the drugs. Stagger these treatments by 1 h and write the treatment time on each set of plates. Return to 37° C. for 48 h or 96 h as indicated.
MTS Assay: The reagents from CellTiter 96 kit (Promega Corporation, Madison, Wis.) were thawed at room temperature in the dark for 1 h. The 96-well plate was removed from the 37° C. incubator at 48 h after drug treatment. […] The absorbance of each well at 490 nm and 650 nm was determined using the Flexstation 3 microplate reader in endpoint mode every hour for 3 h. The solutions in the wells were mixed prior to each reading. […]

Turning to `COc1cc(C(=O)Nc2ccn([C@@H]3O[C@H](CO)[C@@H](O)C3(F)F)c(=O)n2)cc(OC)c1OC` [GTB, N^4-(3,4,5-Trimethoxybenzoyl)gemcitabine], in data set [1] (Compound 2 = BMS-790052), the “Interaction Type with BMS-790052” value was “moderate synergism”. Besides, the “Interaction Type with PSI-7977” value in data set [1] (Compound 2 = PSI-7977) is reported as “moderate antagonism”. Besides, the IC50 in data set [2] (100 μM BNPP, read-out: IC50 (nM) +BNPP) amounted to 81 nM; in data set [2] (100 μM benzil, read-out: IC50 (nM) +Benzil) it was 125 nM; in data set [2] (no carboxylesterase inhibitor, read-out: IC50 (nM) −Benzil −BNPP), 49 nM. The compound also came in with a CC50 at 48 h in data set [3] of over 500 µM.

For the origin of these results see patent US9744186B2 (priority 2012, dated 2017).
